The target of assay [1] is T1, TNKS2 ARC4 (Homo sapiens, UniProt Q9H2K2).
T1 construct: ankyrin repeat cluster 4 domain; FRET: 6xHis-mCerulean (CFP) fusion; DSF, NMR, crystal: MBP and His tag cleaved by TEV, residues 487-649 printed for crystal; E. coli BL21(DE3)
T1 sequence (Q9H2K2 487-649): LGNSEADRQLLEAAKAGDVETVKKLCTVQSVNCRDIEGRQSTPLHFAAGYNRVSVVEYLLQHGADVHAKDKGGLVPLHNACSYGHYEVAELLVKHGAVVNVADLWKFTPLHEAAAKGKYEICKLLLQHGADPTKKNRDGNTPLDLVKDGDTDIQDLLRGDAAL
Description: FRET displacement of YFP-REAGDGEE peptide from CFP-ARC. Format: binding.

The target of assay [2] is T1, TNKS2 ARC4. More on the design: DSF thermal shift of TNKS2 ARC4, stabilization over DMSO control. As to conditions: binder. The source says:
Given the notable stabilization of the pyrrolone-based compounds from the Commercials Diversity collection, we decided to focus on their common scaffold for compound optimization. Pyrrolone is indeed a versatile moiety that is largely employed for the design of compounds with a variety of biological effects.[55] The nine primary hits were acquired from commercial suppliers, they underwent quality control, additional DSF validation and determination of potency through FRET-based IC50 measurements (Table 1). All the tested compounds include a benzodioxane moiety (R[1]), a [compound left out] group with substitutions in the para position (R[2]), and an R[3] group with an aliphatic character and a tertiary amine. […] In addition, all molecules, except for 7, have IC50 values below 100 µM. Among the nine molecules, 1 performed the best in terms of stabilization of TNKS2 ARC4 and potency. […] In the same position, the presence of a hydrophobic methyl group (3, 4), other halogen substituents (5) and alkoxy groups (6–9) is also tolerated, even if not optimal. […] A SAR investigation was conducted with purchased and synthesized analogues of 1 through FRET-based potency measurements and DSF assay with TNKS2 ARC4 (Table 2, Table S2). All the compounds commercially acquired underwent quality control. […] Changes to the length of the aliphatic chain at R[3] greatly impacts both potency and protein stabilization. […] The diethylamino-based substituent at R[3] […] Compounds 25 and 26 further indicate that the presence of tertiary amine at R[3] is not necessary to achieve binding. […] 5 Figure S2. DSF assay results for validation of primary hits identified in the EU-OPENSCREEN Commercials Diversity Library. (A) and (B) show DSF assay validation measurements of TNKS2 ARC4 with primary hits from the Commercial Diversity Library. Compounds are tested at 100 μM. They are named after their EU-OPENSCREEN identity codes and the identities are available for consultation on ECBD. 1,2 (A) and (B) show results from two independent experiments. For each experiment, each compound was tested with a single measurement, while controls (TNKS2 ARC4 with 100 μM optimized peptide, TNKS2 ARC4 with 100 μM DMSO) are studied in at least four replicates and errors are shown. Moreover, stabilization over the control (TNKS2 ARC4 with DMSO) is indicated (ΔTm °C). […] It was not possible to measure the melting curve of TNKS2 ARC4 in presence of EOS21552, EOS54043, EOS54043.

26 compounds from article doi:10.1101/2025.03.31.646301v1, “Discovery of Tankyrase scaffolding inhibitor specifically targeting the ARC4 peptide binding domain” (biorxiv, 2025) can be followed below.

Molecules are shown by their SMILES. Read-outs that look alike come from different tables or passages of the source.

The term IC50 denotes the point on the concentration scale where inhibition reaches its midpoint.

In assay [1], `COc1cccc(C2C(C(=O)c3ccc4c(c3)OCCO4)=C(O)C(=O)N2CCCN2CCNCC2)c1` (stereo not shown) [S1] registered an IC50 of 250 µM. Moreover, in assay [2], the “ΔTm ± SD (°C)” value amounted to 0.69 ± 0.30 °C. The like results for `COc1cccc(C2C(C(=O)c3ccc4c(c3)OCCO4)=C(O)C(=O)N2CCCNC(=N)N)c1` (stereo not shown) [S4] were, in that order, 142 µM and 1.10 ± 0.12 °C. Take `CCN(CC)CCCN1C(=O)C(O)=C(C(=O)c2ccc(OC)c(OC)c2)C1c1ccccc1` (stereo not shown) [S10]: the “ΔTm ± SD (°C)” value in assay [2] is -0.28 ± 0.35 °C. Still for that read-out and setting: with `CCN(CC)CCCN1C(=O)C(O)=C(C(=O)c2ccc(OC)c(OC)c2)C1c1cccc(O)c1` (stereo not shown) [S11] the figure was 0.08 ± 0.40 °C.

For `CN(C)CCCN1C(=O)C(O)=C(C(=O)c2ccc3c(c2)OCCO3)C1c1cccc(O)c1` (stereo not shown) [compound 16, 16], the IC50 in assay [1] was 31 µM. This counts as double-digit micromolar.

As for `CN(C)CCCN1C(=O)C(O)=C(C(=O)c2ccc3c(c2)OCCO3)C1c1cccc(O)c1` (stereo not shown) [compound 16], the “ΔTm ± SD (°C)” value in assay [2] worked out at 2.96 ± 0.36 °C. `CN(C)CCN1C(=O)C(O)=C(C(=O)c2ccc3c(c2)OCCO3)C1c1cccc(O)c1` (stereo not shown) [compound 17, 17] registered an IC50 in assay [1] of 274 µM. As to `CN(C)CCN1C(=O)C(O)=C(C(=O)c2ccc3c(c2)OCCO3)C1c1cccc(O)c1` (stereo not shown) [compound 17], in assay [2], the “ΔTm ± SD (°C)” value is 0.98 ± 0.32 °C. `O=C(C1=C(O)C(=O)N(CCCN2CCOCC2)C1c1cccc(O)c1)c1ccc2c(c1)OCCO2` (stereo not shown) [compound 18, 18] returned an IC50 in assay [1] of 85 µM. Consider `O=C(C1=C(O)C(=O)N(CCCN2CCOCC2)C1c1cccc(O)c1)c1ccc2c(c1)OCCO2` (stereo not shown) [compound 18], for which, in assay [2], the “ΔTm ± SD (°C)” value came out at 2.25 ± 0.48 °C.

In assay [1], `CCN(CC)CCCN1C(=O)C(O)=C(C(=O)c2ccc3c(c2)OCCO3)C1c1ccc(N(C)C)cc1` (stereo not shown) [compound 19, 19] yielded an IC50 of 10 µM. For the compound `CCN(CC)CCCN1C(=O)C(O)=C(C(=O)c2ccc3c(c2)OCCO3)C1c1ccc(N(C)C)cc1` (stereo not shown) [compound 19], the “ΔTm ± SD (°C)” value in assay [2] stood at 4.14 ± 0.12 °C. Turning to `CCN(CC)CCCN1C(=O)C(O)=C(C(=O)c2ccc3c(c2)OCCO3)C1c1ccc(C)cc1` (stereo not shown) [compound 20, 20], the IC50 in assay [1] turned out to be 78 µM. In the case of `CCN(CC)CCCN1C(=O)C(O)=C(C(=O)c2ccc3c(c2)OCCO3)C1c1ccc(C)cc1` (stereo not shown) [compound 20], the “ΔTm ± SD (°C)” value in assay [2] stood at 3.43 ± 0.66 °C. Compound `CCN(CC)CCCN1C(=O)C(O)=C(C(=O)c2ccc3c(c2)OCCO3)C1c1ccccc1` (stereo not shown) [compound 21, 21] showed an IC50 in assay [1] of 36 µM. In other words, the double-digit micromolar range. For the compound `CCN(CC)CCCN1C(=O)C(O)=C(C(=O)c2ccc3c(c2)OCCO3)C1c1ccccc1` (stereo not shown) [compound 21], the “ΔTm ± SD (°C)” value in assay [2] worked out at 4.73 ± 0.29 °C. In assay [1], `O=C(C1=C(O)C(=O)N(Cc2ccncc2)C1c1ccccc1)c1ccc2c(c1)OCCO2` (stereo not shown) [compound 22, 22] came in with an IC50 of 325 µM. Consider `O=C(C1=C(O)C(=O)N(Cc2ccncc2)C1c1ccccc1)c1ccc2c(c1)OCCO2` (stereo not shown) [compound 22], for which, in assay [2], the “ΔTm ± SD (°C)” value amounted to 0.48 ± 0.27 °C. As to `O=C(C1=C(O)C(=O)N(CCN2CCOCC2)C1c1ccccc1)c1ccc2c(c1)OCCO2` (stereo not shown) [compound 23, 23], in assay [1] (pH 7, 100 nM CFP-ARC, 200 nM YFP-peptide, TBM pocket), the IC50 came out at 411 µM. As for `O=C(C1=C(O)C(=O)N(CCN2CCOCC2)C1c1ccccc1)c1ccc2c(c1)OCCO2` (stereo not shown) [compound 23], the “ΔTm ± SD (°C)” value in assay [2] is 0.89 ± 0.33 °C. As to `CCN(CC)CCCN1C(=O)C(O)=C(C(=O)c2ccc3c(c2)OCCO3)C1c1ccncc1` (stereo not shown) [compound 24, 24], in assay [1], the IC50 is 56 µM. In other words, the double-digit micromolar range. Take `CCN(CC)CCCN1C(=O)C(O)=C(C(=O)c2ccc3c(c2)OCCO3)C1c1ccncc1` (stereo not shown) [compound 24]: the “ΔTm ± SD (°C)” value in assay [2] stood at 2.75 ± 0.44 °C. The compound `O=C(C1=C(O)C(=O)N(CCc2ccccc2)C1c1ccc(O)cc1)c1ccc2c(c1)OCCO2` (stereo not shown) [compound 25, 25] registered an IC50 in assay [1] of 56 µM.

For the compound `O=C(C1=C(O)C(=O)N(CCc2ccccc2)C1c1ccc(O)cc1)c1ccc2c(c1)OCCO2` (stereo not shown) [compound 25], in assay [2], the “ΔTm ± SD (°C)” value was 1.80 ± 0.26 °C. `O=C(C1=C(O)C(=O)N(Cc2ccccc2)C1c1ccc(O)cc1)c1ccc2c(c1)OCCO2` (stereo not shown) [compound 26, 26] registered a half-maximal inhibitory concentration (IC50) in assay [1] of 30 µM.

On to `O=C(C1=C(O)C(=O)N(Cc2ccccc2)C1c1ccc(O)cc1)c1ccc2c(c1)OCCO2` (stereo not shown) [compound 26], for which the “ΔTm ± SD (°C)” value in assay [2] came to 0.76 ± 0.33 °C.
